Patent US20260183270A1, “PHARMACEUTICAL COMPOSITION COMPRISING AAK1 INHIBITOR” (Xizang Haisco Pharmaceutical Co., Ltd., priority 2022, published 2026)

Assays:
[1] = Pharmacokinetic test of dogs; format: in vivo; conditions: beagle dogs, i.g. (3 mg/kg)
Experimental: Experimental animals: male beagle dogs, about 8 to 11 kg, 6 beagle dogs/compound, purchased from Beijing Marshall Biotechnology Co., Ltd.
Experimental method: on the day of the experiment, 12 beagle dogs were randomly grouped according to their body weights. The animals were fasted with water available for 12 to 14 h one day before the administration and were fed 4 h after the administration. Administration was performed as per Table 2.
Before and after the administration, 1 ml of blood was taken from the jugular veins or limb veins, and placed in an EDTAK2 centrifuge tube. Centrifugation was performed at 5000 rpm at 4° C. for 10 min, and plasma was collected. Blood sampling time points for both the LX9211 intravenous administration group and intragastric administration group include: 0 min, 5 min, 15 min, 30 min, 1 h, 2 h, 4 h, 6 h, 8 h, 10 h, 12 h, and 24 h, and blood sampling time points for both the compound 9 intravenous administration group and intragastric administration group include: 0 min, 5 min, 15 min, 30 min, 1 h, 2 h, 4 h, 6 h, 8 h, 10 h, 12 h, 24 h, and 48 h. Before analysis and detection, all samples were stored at −80° C., and the samples were quantitatively analyzed by LC-MS/MS.

[2] = system: SNL-induced mouse model of neuropathic pain; test: Spinal nerve ligation (SNL)-induced mouse model of neuropathic pain, mechanical pain threshold (Von Frey); format: in vivo, C57BL/6J mice; conditions: for Course of analgesic efficacy over time / Effect on pain threshold (MPT) of mice after SNL modeling: 10 mg/kg intragastric; for Course of analgesic efficacy over time: 1 to 6 hours after administration; for Effect on pain threshold (MPT) of mice after SNL modeling: single administration, 1, 3 and 6 hours after administration
Text: Male C57BL/6J mice (8 weeks old) purchased from Jinan Pengyue Experimental Animal Breeding Co., Ltd. were adaptively raised for one week and then the models were established. The specific establishment method comprises the following steps: • 1) disinfecting the surgical instrument and ligature; • 2) anesthetizing the mice with isoflurane and then placing the mice on the operating table in the prone position; • 3) shaving the fur near the hip bones of the mice and preparing the skin, and making an incision of about 2 cm along the spine; • 4) isolating the fascia along the spine, performing blunt dissection of the muscles, and exposing the transverse process of L5; • 5) carefully cutting the transverse process of L5 with forceps and exposing the L5 spinal nerve; • 6) carefully isolating the L5 nerve with a glass dissecting needle, and ligating the L5 nerve with a 5-0 ligature; and • 7) suturing the muscles and skin and disinfecting same with iodophor.
The mice that were unsuccessful in modeling were eliminated the next day after modeling (marker for successful modeling: mice with their hind paws curled up). After modeling, the mice were stroked for 3 to 5 minutes every day to ensure that the animals were familiar with the experimenter, and then the mice were placed on a metal pain measuring frame for 40 to 60 minutes of adaptation. After 3 days of acclimatization, Von Frey filaments (Aesthesio®; 0.16 g, 0.4 g, 0.6 g, 1.0 g, 1.4 g and 2.0 g) were used to test the pre-administration baseline values of the animals (Ascending testing approach). Each animal was tested twice and average values were taken, with intervals of at least 5 minutes. The animals were grouped according to the baseline values (10 animals per group). After the grouping, LX-9211 (1 and 10 mg/kg), compound 2 (1 and 10 mg/kg) or vehicle (40% PEG-400+10% ethanol+15% Tween 80+35% physiological saline) was administered intragastrically. The mice were tested for the mechanical pain threshold (MPT) at 1, 3 and 6 hours after the administration. Time-MPT curve was plotted using GraphPad 8.3.0, and statistical analysis was performed.

[3] = Mouse brain/blood ratio test; format: in vivo, ICR mice; conditions: mice
Experimental: male ICR mice, 20 to 25 g, 9 mice/compound. purchased from Chengdu Ddossy Experimental Animals Co., Ltd.
on the day of the experiment, 18 ICR mice were randomly grouped according to their body weights. The animals were fasted with water available for 12 to 14 h one day before the administration and were fed 4 h after the administration.
After intragastric administration, whole blood and brain tissue were collected at 0.5 h, 4 h and 24 h, and the whole blood was centrifuged to separate the plasma. The brain tissue was rinsed with cold physiological saline to remove the residual blood on the surface, drained out and then homogenized. Before analysis and detection, all samples were stored at −80 C, and the samples were quantitatively analyzed by LC-MS/MS.

hERG potassium channel = target: T1, hERG potassium channel (Homo sapiens, UniProt Q12809); test: Test for hERG potassium ion channel (manual whole cell patch-clamp, CHO cells); format: cell-based
T1 construct: expressed in transfected cells
T1 sequence (Q12809 whole entry): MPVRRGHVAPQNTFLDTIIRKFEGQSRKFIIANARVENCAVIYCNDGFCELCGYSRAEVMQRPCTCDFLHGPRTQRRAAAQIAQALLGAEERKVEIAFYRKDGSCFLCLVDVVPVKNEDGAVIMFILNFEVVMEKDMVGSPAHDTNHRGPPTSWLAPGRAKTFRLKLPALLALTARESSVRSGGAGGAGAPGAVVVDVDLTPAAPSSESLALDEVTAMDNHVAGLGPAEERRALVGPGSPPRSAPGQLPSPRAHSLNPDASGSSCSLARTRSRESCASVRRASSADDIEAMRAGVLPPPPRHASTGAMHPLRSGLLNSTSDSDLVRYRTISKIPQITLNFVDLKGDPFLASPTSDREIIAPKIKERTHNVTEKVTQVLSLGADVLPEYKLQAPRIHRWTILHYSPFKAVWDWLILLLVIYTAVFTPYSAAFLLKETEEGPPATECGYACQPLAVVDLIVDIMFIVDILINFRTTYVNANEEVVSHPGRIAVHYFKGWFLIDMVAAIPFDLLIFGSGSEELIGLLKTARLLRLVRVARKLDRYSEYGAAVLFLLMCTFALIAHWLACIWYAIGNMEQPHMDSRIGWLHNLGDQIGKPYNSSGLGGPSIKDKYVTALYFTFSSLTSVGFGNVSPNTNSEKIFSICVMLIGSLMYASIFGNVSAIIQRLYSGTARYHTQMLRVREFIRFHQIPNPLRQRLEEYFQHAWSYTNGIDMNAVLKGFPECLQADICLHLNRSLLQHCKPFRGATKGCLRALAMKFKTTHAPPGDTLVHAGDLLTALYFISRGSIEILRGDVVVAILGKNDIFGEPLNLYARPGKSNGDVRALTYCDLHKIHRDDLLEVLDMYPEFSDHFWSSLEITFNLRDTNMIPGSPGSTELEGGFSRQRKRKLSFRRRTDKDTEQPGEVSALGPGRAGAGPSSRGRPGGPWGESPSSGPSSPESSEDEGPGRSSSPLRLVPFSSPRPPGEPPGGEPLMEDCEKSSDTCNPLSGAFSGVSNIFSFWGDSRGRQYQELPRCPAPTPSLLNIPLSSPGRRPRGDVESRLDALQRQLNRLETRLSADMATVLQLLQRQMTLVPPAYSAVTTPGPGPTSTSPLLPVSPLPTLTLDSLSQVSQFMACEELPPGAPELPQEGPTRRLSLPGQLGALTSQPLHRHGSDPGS
Text: Experimental platform: electrophysiological manual patch-clamp system
Cell line: Chinese hamster ovary (CHO) cell line stably expressing hERG potassium ion channel
Experimental method: in CHO (Chinese Hamster Ovary) cells stably expressing hERG potassium channel, the whole cell patch-clamp technique was used to record hERG potassium channel current at room temperature. The glass microelectrode was made of a glass electrode blank (BF150-86-10, Sutter) by a puller. The tip resistance after filling the liquid in the electrode was about 2-5 MΩ. The glass microelectrode can be connected to the patch-clamp amplifier by inserting the glass microelectrode into an amplifier probe. The clamping voltage and data recording were controlled and recorded by the pClamp 10 software through a computer. The sampling frequency was 10 kHz, and the filtering frequency was 2 kHz. […]
Data processing: data analysis processing was carried out by using pClamp 10, GraphPad Prism 5 and Excel software. The inhibition degree of hERG potassium current (peak value of hERG tail current induced at −50 mV) at different compound concentrations was calculated by the following formula: […]
Compound IC50 was calculated using GraphPad Prism 5 software by fitting according to the following equation: […]

AAK1 = target: T2, AAK1 (Homo sapiens, UniProt Q2M2I8); test: In vitro AAK1 enzyme activity assay (ADP-Glo); format: biochemical; conditions: read-out: Inhibitory activity against AAK1 IC50
T2 construct: purchased Signalchem A01-11G-10
T2 sequence (Q2M2I8 27-365 limits assumed): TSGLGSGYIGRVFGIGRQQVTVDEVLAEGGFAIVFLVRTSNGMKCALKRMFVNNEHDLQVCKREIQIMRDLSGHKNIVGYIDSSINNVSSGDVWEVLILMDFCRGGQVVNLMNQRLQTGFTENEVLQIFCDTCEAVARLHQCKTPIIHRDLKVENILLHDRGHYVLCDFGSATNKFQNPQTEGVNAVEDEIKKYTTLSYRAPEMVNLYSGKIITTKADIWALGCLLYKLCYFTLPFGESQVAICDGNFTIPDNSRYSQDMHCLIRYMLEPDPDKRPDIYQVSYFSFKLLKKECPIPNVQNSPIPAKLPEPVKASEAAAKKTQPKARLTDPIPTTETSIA
Experimental: Compound stock solution (concentration: 10 mM, dissolved in DMSO) was diluted with DMSO to 0.2 mM and then diluted with DMSO in 5-fold gradient to obtain compound solutions with 10 concentrations. Subsequently, the compound solutions with different concentrations were diluted 50-fold in 1× kinase reaction buffer (containing 40 mM Tris, 20 mM MgCl2, 0.1% BSA and 0.5 mM DTT) for later use. AAK1 (Signalchem, Cat #A01-11G-10) was diluted with 1× kinase reaction buffer to 2-fold the final concentration (final concentrations: 30 nM and 28 nM). AAK1 was added to a 384-well white plate at 2 μL/well, and the compounds were then added at 1 μL/well. The plate was sealed with a plate-sealing film, centrifuged at 1000 rpm for 30 seconds and then placed at room temperature for 10 minutes. […] The RLU (Relative luminescence unit) signal values were read using a Biotek multimode microplate reader and the percent inhibition was calculated according to the following formula: [1−(LUMcompound−LUMpositive control)/(LUMnegative control−LUMpositive control)]×100. IC50 values were calculated using Graphpad 7.0 software using a four-parameter non-linear fit equation.

F [1] | Brain tissue AUC0-t ([3]; i.g. (10 mg/kg)) | IC50 (AAK1) | Kp ([3]; male, ICR, mouse, brain/plasma, po, i.g. (10 mg/kg)) | AUC(0-t) ([3]; male, ICR, mouse, plasma, po, i.g. (10 mg/kg), read-out: Plasma AUC0-t) | Brain penetrability (in words) [3] | Compound | Course of analgesic efficacy over time [2] | Effect on pain threshold (MPT) of mice after SNL modeling [2] | inhibition at 40 µM (hERG potassium channel; human, CHO cells stably expressing hERG potassium channel, at 40 μM, read-out: Inhibition rate at the highest concentration tested (hERG potassium channel current)) | IC50 (hERG potassium channel; read-out: IC50 (hERG potassium channel current)) | Efficacy compared with LX-9211 ([2]; at 3 and 6 hours after the administration) | Pharmacodynamic activity as an analgesic compared with LX-9211 ([2]; overall conclusion)
22.2 ± 8.1% | 110424 ng·h/g |  |  |  |  | CC(C)C[C@](C)(N)COc1ccc(-c2ccnc(C(F)F)c2)nc1C(F)F [LX-9211, reference compound] | efficacy gradually decreased thereafter | effectively increased the pain threshold |  |  |  | 
 | 36853 ng·h/g | 0.0109 µM | 64.5 | 572 ng·h/mL | high brain penetrability | C=C(C)CC(C)(N)COc1ccc(-c2ccnc(C(F)F)c2)nc1C(F)F (single isomer, unassigned) [Compound 2] | tended to be stable | effectively increased the pain threshold | 86.6 ± 1.77% | 8.75 µM | better efficacy than LX-9211 | better pharmacodynamic activity than LX-9211
 |  | 0.0137 µM |  |  |  | COC(=O)Nc1cc(-c2ccc(OC[C@@](C)(N)CC(C)(C)F)c(C)n2)ccn1 [Compound 10] |  |  |  |  |  | 
113 ± 6.9% |  |  |  |  |  | COC(=O)Nc1cc(-c2ccc(OC[C@@](C)(N)CC(C)(C)F)c(C(F)F)n2)ccn1 [Compound 9] |  |  |  |  |  | 
